In publication PMC7794376 (Nature Communications, 2021):
In brackets after ≈: the same amount, converted by molar mass. Like-named read-outs stand apart in the source and are kept apart here.

What was measured:
[1] = biological target: T1, MtbCoaBC (Mycobacterium tuberculosis, UniProt P9WNZ1); assay: biochemical; format: biochemical; conditions: for activity at 0.03125 µM / activity at 0.0625 µM / activity at 0.25 µM / activity at 0.5 µM / activity at 1 µM / activity at 2 µM: relative to average DMSO CT; for Activity R1 / Activity R3: slope of absorbance at 360 nm vs time (s); for IC50: read-out: IC50 EnzChek MtbCoaBC
T1 sequence (P9WNZ1 whole entry): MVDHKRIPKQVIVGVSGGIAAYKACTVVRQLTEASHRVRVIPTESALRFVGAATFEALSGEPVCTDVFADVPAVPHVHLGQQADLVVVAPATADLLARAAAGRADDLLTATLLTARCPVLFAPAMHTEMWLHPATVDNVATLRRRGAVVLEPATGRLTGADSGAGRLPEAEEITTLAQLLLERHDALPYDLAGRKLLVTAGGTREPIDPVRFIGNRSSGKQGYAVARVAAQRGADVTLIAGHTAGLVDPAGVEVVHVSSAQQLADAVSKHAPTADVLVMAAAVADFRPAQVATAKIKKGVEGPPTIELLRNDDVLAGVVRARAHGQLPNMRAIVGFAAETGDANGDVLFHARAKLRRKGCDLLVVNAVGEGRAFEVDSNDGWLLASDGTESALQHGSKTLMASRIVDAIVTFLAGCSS

[2] = biological target: T1, MtbCoaBC; assay: High-throughput end-point pyrophosphate quantification assay (Biomol Green); format: biochemical; conditions: MtbCoaB activity; end-point, 2 µM CTP, 40 µM L-cysteine, 30 µM PPA; read-out: IC50 biomol green assay
[3] = test system: M. tuberculosis H37Rv; assay: MIC determination in different media; format: cell-based; conditions: Mycobacterium tuberculosis, read-out: Minimum inhibitory concentration (MIC)
[4] = uM 1c 0.125 as printed, replicates R1-R3

## O=c1cc(-c2ccc(O)cc2)oc2c(O)c(O)ccc12 [2e]
[1]; 0.03125 uM 2e, replicate R1, read-out: Inhibition % R1
  inhibition at 0.03125 µM: 5.66%
[1]; 0.03125 uM 2e, replicate R1, read-out: Activity % R1
  activity at 0.03125 µM: 94.3%
[1]; 0.03125 uM 2e, replicate R1
  Activity R1: 0.0001715
[1]; 0.03125 uM 2e, replicate R2, read-out: Inhibition % R2
  inhibition at 0.03125 µM: 2.73%
[1]; 0.03125 uM 2e, replicate R2, read-out: Activity % R2
  activity at 0.03125 µM: 97.3%
[1]; 0.03125 uM 2e, replicate R3, read-out: Inhibition % R3
  inhibition at 0.03125 µM: 8.32%
[1]; 0.03125 uM 2e, replicate R3, read-out: Activity % R3
  activity at 0.03125 µM: 91.7%
[1]; 0.03125 uM 2e, replicate R3
  Activity R3: 0.0001667
[1]; 0.0625 uM 2e, replicate R1, read-out: Inhibition % R1
  inhibition at 0.0625 µM: 10.7%
[1]; 0.0625 uM 2e, replicate R1, read-out: Activity % R1
  activity at 0.0625 µM: 89.3%
[1]; 0.0625 uM 2e, replicate R1
  Activity R1: 0.0001624
[1]; 0.0625 uM 2e, replicate R2, read-out: Inhibition % R2
  inhibition at 0.0625 µM: 12.6%
[1]; 0.0625 uM 2e, replicate R2, read-out: Activity % R2
  activity at 0.0625 µM: 87.4%
[1]; 0.0625 uM 2e, replicate R3, read-out: Inhibition % R3
  inhibition at 0.0625 µM: 12.3%
[1]; 0.0625 uM 2e, replicate R3, read-out: Activity % R3
  activity at 0.0625 µM: 87.7%
[1]; 0.0625 uM 2e, replicate R3
  Activity R3: 0.0001594
[1]; 0.25 uM 2e, replicate R1, read-out: Inhibition % R1
  inhibition at 0.25 µM: 38.7%
[1]; 0.25 uM 2e, replicate R1, read-out: Activity % R1
  activity at 0.25 µM: 61.3%
[1]; 0.25 uM 2e, replicate R1
  Activity R1: 0.0001114
[1]; 0.25 uM 2e, replicate R2, read-out: Inhibition % R2
  inhibition at 0.25 µM: 33.5%
[1]; 0.25 uM 2e, replicate R2, read-out: Activity % R2
  activity at 0.25 µM: 66.5%
[1]; 0.25 uM 2e, replicate R3, read-out: Inhibition % R3
  inhibition at 0.25 µM: 37.4%
[1]; 0.25 uM 2e, replicate R3, read-out: Activity % R3
  activity at 0.25 µM: 62.6%
[1]; 0.25 uM 2e, replicate R3
  Activity R3: 0.0001138
[1]; 0.5 uM 2e, replicate R1, read-out: Inhibition % R1
  inhibition at 0.5 µM: 54.7%
[1]; 0.5 uM 2e, replicate R1, read-out: Activity % R1
  activity at 0.5 µM: 45.3%
[1]; 0.5 uM 2e, replicate R1
  Activity R1: 0.000082371
[1]; 0.5 uM 2e, replicate R2, read-out: Inhibition % R2
  inhibition at 0.5 µM: 61.3%
[1]; 0.5 uM 2e, replicate R2, read-out: Activity % R2
  activity at 0.5 µM: 38.7%
[1]; 0.5 uM 2e, replicate R3, read-out: Inhibition % R3
  inhibition at 0.5 µM: 57.9%
[1]; 0.5 uM 2e, replicate R3, read-out: Activity % R3
  activity at 0.5 µM: 42.1%
[1]; 0.5 uM 2e, replicate R3
  Activity R3: 0.000076593
[1]; 1 uM 2e, replicate R1, read-out: Inhibition % R1
  inhibition at 1 µM: 69.6%
[1]; 1 uM 2e, replicate R1, read-out: Activity % R1
  activity at 1 µM: 30.4%
[1]; 1 uM 2e, replicate R1
  Activity R1: 0.000055348
[1]; 1 uM 2e, replicate R2, read-out: Inhibition % R2
  inhibition at 1 µM: 78.2%
[1]; 1 uM 2e, replicate R2, read-out: Activity % R2
  activity at 1 µM: 21.8%
[1]; 1 uM 2e, replicate R3, read-out: Inhibition % R3
  inhibition at 1 µM: 75.2%
[1]; 1 uM 2e, replicate R3, read-out: Activity % R3
  activity at 1 µM: 24.8%
[1]; 1 uM 2e, replicate R3
  Activity R3: 0.000045005
[1]; 2 uM 2e, replicate R1, read-out: Inhibition % R1
  inhibition at 2 µM: 96.5%
[1]; 2 uM 2e, replicate R1, read-out: Activity % R1
  activity at 2 µM: 3.46%
[1]; 2 uM 2e, replicate R1
  Activity R1: 0.000006285
[1]; 2 uM 2e, replicate R2, read-out: Inhibition % R2
  inhibition at 2 µM: 91.3%
[1]; 2 uM 2e, replicate R2, read-out: Activity % R2
  activity at 2 µM: 8.65%
[1]; 2 uM 2e, replicate R3, read-out: Inhibition % R3
  inhibition at 2 µM: 93%
[1]; 2 uM 2e, replicate R3, read-out: Activity % R3
  activity at 2 µM: 6.96%
[1]; 2 uM 2e, replicate R3
  Activity R3: 0.000012661
[1]
  IC50: 3 ± 0.2 µM
[2]
  IC50: 2.2 µM
[3]; 7H9/ADC/Glycerol
  MIC: > 250 µM
[3]; GAST/Fe
  MIC: 125 µM (≈ 33.8 µg/mL)

## Oc1ccc(Cc2ccc(O)c(O)c2O)cc1 [compound 1c]
[1]
  IC50: 4.6 ± 0.4 µM
[1]; uM 1c 0.03125 as printed, replicates R1-R3
  remaining activity at 0.03125 µM: 94.6%
[1]; uM 1c 0.0625 as printed, replicates R1-R3
  remaining activity at 0.0625 µM: 87.8%
[1]; uM 1c 0.0625 as printed, replicates R1-R3, read-out: Inhibition %
  inhibition at 0.0625 µM: 17.8%
[1]; [4]
  inhibition at […]: 29.1%
  remaining activity at […]: 74.8%
[1]; uM 1c 0.25 as printed, replicates R1-R3
  remaining activity at 0.25 µM: 65.6%
[1]; uM 1c 0.25 as printed, replicates R1-R3, read-out: Inhibition %
  inhibition at 0.25 µM: 40.6%
[1]; uM 1c 0.5 as printed, replicates R1-R3
  remaining activity at 0.5 µM: 40.9%
[1]; uM 1c 0.5 as printed, replicates R1-R3, read-out: Inhibition %
  inhibition at 0.5 µM: 68.6%
[1]; uM 1c 1 as printed, replicates R1-R3, read-out: Inhibition %
  inhibition at 1 µM: 89.7%
[1]; uM 1c 2 as printed, replicates R1-R3, read-out: Inhibition %
  inhibition at 2 µM: 95%
[2]
  IC50: 4.7 µM
[3]; 7H9/ADC/Glycerol
  MIC: > 250 µM
[3]; GAST/Fe
  MIC: 125 µM (≈ 29 µg/mL)
